Reference: PubChem BioAssay AID248 (DTP/NCI, 2004)
“And” between values parts separate entries of the source, which are not always exact repeats. Identical values can stand only once. Toxic doses and inconclusive results are not listed. Rule as the data show it: active = T/C of 150% or more; inactive = T/C below 125%.

Test system: L1210 leukemia ip in BDF1 mice, survival T/C
Assay: NCI In Vivo Anticancer Drug Screen. Data for tumor model L1210 Leukemia (intraperitoneal) in B6D2F1 (BDF1) mice
Conditions: higher = longer survival
Procedure, shortened: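 Transplantable tumor model; survival measured in treated vs vehicle control mice. Value = treated/control.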

Measured: T/C

CC[n+]1c(-c2ccccc2)c2cc(N)ccc2c2ccc(N)cc21
inactive: endpoint: mean survival time, dose: 0.63 mg/kg/injection, schedule: Q01DX Z (ip), vehicle: saline 113 % of control | endpoint: mean survival time, dose: 1.25 mg/kg/injection, schedule: Q01DX Z (ip), vehicle: saline 122 % of control | endpoint: mean survival time, dose: 2.25 mg/kg/injection, schedule: Q01DX001 (ip), vehicle: saline 110 % of control and 113 % of control | endpoint: mean survival time, dose: 2.25 mg/kg/injection, schedule: Q07DX003 (ip), vehicle: saline 113 % of control | endpoint: mean survival time, dose: 2.5 mg/kg/injection, schedule: Q01DX005 (ip), vehicle: saline 109 % of control | endpoint: mean survival time, dose: 2.5 mg/kg/injection, schedule: Q01DX009 (ip), vehicle: saline 107 % of control | endpoint: mean survival time, dose: 2.5 mg/kg/injection, schedule: Q## X040 (ip), vehicle: saline 107 % of control | endpoint: mean survival time, dose: 2.5 mg/kg/injection, schedule: Q#A X Z (ip), vehicle: saline 108 % of control | endpoint: mean survival time, dose: 4.4 mg/kg/injection, schedule: Q02DX010 (ip), vehicle: saline 110 % of control | endpoint: mean survival time, dose: 4.5 mg/kg/injection, schedule: Q01DX001 (ip), vehicle: saline 104 % of control and 113 % of control | endpoint: mean survival time, dose: 4.5 mg/kg/injection, schedule: Q07DX003 (ip), vehicle: saline 109 % of control | endpoint: mean survival time, dose: 5.0 mg/kg/injection, schedule: Q01DX005 (ip), vehicle: saline 116 % of control | endpoint: mean survival time, dose: 5.0 mg/kg/injection, schedule: Q01DX006 (iv), vehicle: saline 104 % of control | endpoint: mean survival time, dose: 5.0 mg/kg/injection, schedule: Q01DX009 (ip), vehicle: saline 108 % of control | endpoint: mean survival time, dose: 5.0 mg/kg/injection, schedule: Q01DX Z (im), vehicle: saline 106 % of control | endpoint: mean survival time, dose: 5.0 mg/kg/injection, schedule: Q01DX Z (sc), vehicle: saline 110 % of control | endpoint: mean survival time, dose: 5.0 mg/kg/injection, schedule: Q## X040 (ip), vehicle: saline 111 % of control | endpoint: mean survival time, dose: 5.3 mg/kg/injection, schedule: Q02DX010 (ip), vehicle: saline 116 % of control | endpoint: mean survival time, dose: 6.6 mg/kg/injection, schedule: Q02DX010 (ip), vehicle: saline 116 % of control | endpoint: mean survival time, dose: 9.0 mg/kg/injection, schedule: Q01DX001 (ip), vehicle: saline 113 % of control and 116 % of control | endpoint: mean survival time, dose: 9.0 mg/kg/injection, schedule: Q07DX003 (ip), vehicle: saline 110 % of control | endpoint: mean survival time, dose: 9.9 mg/kg/injection, schedule: Q02DX010 (ip), vehicle: saline 115 % of control | endpoint: mean survival time, dose: 10.0 mg/kg/injection, schedule: Q01DX005 (ip), vehicle: saline 120 % of control | endpoint: mean survival time, dose: 10.0 mg/kg/injection, schedule: Q01DX006 (iv), vehicle: saline 123 % of control | endpoint: mean survival time, dose: 10.0 mg/kg/injection, schedule: Q01DX009 (ip), vehicle: saline 116 % of control | endpoint: mean survival time, dose: 10.0 mg/kg/injection, schedule: Q01DX Z (im), vehicle: saline 119 % of control | endpoint: mean survival time, dose: 10.0 mg/kg/injection, schedule: Q01DX Z (sc), vehicle: saline 116 % of control | endpoint: mean survival time, dose: 10.0 mg/kg/injection, schedule: Q## X040 (ip), vehicle: saline 112 % of control | endpoint: mean survival time, dose: 10.0 mg/kg/injection, schedule: Q#A X Z (ip), vehicle: saline 112 % of control | endpoint: mean survival time, dose: 12.5 mg/kg/injection, schedule: Q04DX003 (ip), vehicle: water 104 % of control | endpoint: mean survival time, dose: 14.85 mg/kg/injection, schedule: Q02DX010 (ip), vehicle: saline 113 % of control | endpoint: mean survival time, dose: 15.0 mg/kg/injection, schedule: Q03DX006 (ip), vehicle: saline 118 % of control | endpoint: mean survival time, dose: 18.0 mg/kg/injection, schedule: Q01DX001 (ip), vehicle: saline 116 % of control and 121 % of control | endpoint: mean survival time, dose: 18.0 mg/kg/injection, schedule: Q07DX003 (ip), vehicle: saline 122 % of control | endpoint: mean survival time, dose: 20.0 mg/kg/injection, schedule: Q01DX001 (ip), vehicle: saline 109 % of control | endpoint: mean survival time, dose: 20.0 mg/kg/injection, schedule: Q01DX001 (sc), vehicle: saline 103 % of control | endpoint: mean survival time, dose: 20.0 mg/kg/injection, schedule: Q01DX003 (ip), vehicle: saline 118 % of control | endpoint: mean survival time, dose: 20.0 mg/kg/injection, schedule: Q01DX005 (ip), vehicle: saline 110 % of control | endpoint: mean survival time, dose: 20.0 mg/kg/injection, schedule: Q01DX009 (ip), vehicle: saline 117 % of control | endpoint: mean survival time, dose: 20.0 mg/kg/injection, schedule: Q01DX Z (im), vehicle: saline 116 % of control | endpoint: mean survival time, dose: 20.0 mg/kg/injection, schedule: Q01DX Z (ip), vehicle: saline 95 % of control | endpoint: mean survival time, dose: 20.0 mg/kg/injection, schedule: Q01DX Z (oral), vehicle: saline 110 % of control | endpoint: mean survival time, dose: 20.0 mg/kg/injection, schedule: Q01DX Z (sc), vehicle: saline 122 % of control | endpoint: mean survival time, dose: 20.0 mg/kg/injection, schedule: Q## X008 (ip), vehicle: saline 94 % of control | endpoint: mean survival time, dose: 20.0 mg/kg/injection, schedule: Q## X024 (ip), vehicle: saline 107 % of control | endpoint: mean survival time, dose: 22.27 mg/kg/injection, schedule: Q02DX010 (ip), vehicle: saline 117 % of control | endpoint: mean survival time, dose: 25.0 mg/kg/injection, schedule: Q04DX003 (ip), vehicle: water 104 % of control | endpoint: mean survival time, dose: 40.0 mg/kg/injection, schedule: Q01DX001 (ip), vehicle: saline 118 % of control | endpoint: mean survival time, dose: 40.0 mg/kg/injection, schedule: Q01DX001 (sc), vehicle: saline 102 % of control | endpoint: mean survival time, dose: 40.0 mg/kg/injection, schedule: Q01DX003 (ip), vehicle: saline 110 % of control | endpoint: mean survival time, dose: 40.0 mg/kg/injection, schedule: Q01DX005 (ip), vehicle: saline 96 % of control | endpoint: mean survival time, dose: 40.0 mg/kg/injection, schedule: Q01DX009 (ip), vehicle: saline 90 % of control | endpoint: mean survival time, dose: 40.0 mg/kg/injection, schedule: Q01DX Z (oral), vehicle: saline 113 % of control | endpoint: mean survival time, dose: 40.0 mg/kg/injection, schedule: Q## X008 (ip), vehicle: saline 95 % of control | endpoint: mean survival time, dose: 40.0 mg/kg/injection, schedule: Q## X024 (ip), vehicle: saline 111 % of control | endpoint: mean survival time, dose: 40.0 mg/kg/injection, schedule: Q## X040 (ip), vehicle: saline 93 % of control | endpoint: mean survival time, dose: 60.0 mg/kg/injection, schedule: Q03DX006 (ip), vehicle: saline 93 % of control | endpoint: mean survival time, dose: 70.0 mg/kg/injection, schedule: Q01DX001 (ip), vehicle: saline 118 % of control and 119 % of control | endpoint: mean survival time, dose: 70.0 mg/kg/injection, schedule: Q07DX003 (ip), vehicle: saline 124 % of control | endpoint: mean survival time, dose: 80.0 mg/kg/injection, schedule: Q01DX001 (ip), vehicle: saline 103 % of control | endpoint: mean survival time, dose: 80.0 mg/kg/injection, schedule: Q01DX001 (sc), vehicle: saline 108 % of control | endpoint: mean survival time, dose: 80.0 mg/kg/injection, schedule: Q01DX003 (ip), vehicle: saline 98 % of control | endpoint: mean survival time, dose: 80.0 mg/kg/injection, schedule: Q01DX Z (oral), vehicle: saline 108 % of control | endpoint: mean survival time, dose: 80.0 mg/kg/injection, schedule: Q## X008 (ip), vehicle: saline 103 % of control | endpoint: mean survival time, dose: 140.0 mg/kg/injection, schedule: Q01DX001 (ip), vehicle: saline 104 % of control and 124 % of control | endpoint: mean survival time, dose: 160.0 mg/kg/injection, schedule: Q01DX001 (ip), vehicle: saline 94 % of control | endpoint: mean survival time, dose: 160.0 mg/kg/injection, schedule: Q01DX Z (oral), vehicle: saline 113 % of control | endpoint: mean survival time, dose: 160.0 mg/kg/injection, schedule: Q## X024 (ip), vehicle: saline 94 % of control | endpoint: mean survival time, dose: 200.0 mg/kg/injection, schedule: Q01DX001 (oral), vehicle: saline 103 % of control | endpoint: mean survival time, dose: 215.0 mg/kg/injection, schedule: Q04DX003 (ip), vehicle: water 109 % of control | endpoint: mean survival time, dose: 400.0 mg/kg/injection, schedule: Q01DX001 (oral), vehicle: saline 103 % of control | endpoint: mean survival time, dose: 430.0 mg/kg/injection, schedule: Q04DX003 (ip), vehicle: water 93 % of control | endpoint: mean survival time, dose: 800.0 mg/kg/injection, schedule: Q01DX001 (oral), vehicle: saline 101 % of control | endpoint: mean survival time, dose: 1600.0 mg/kg/injection, schedule: Q01DX001 (oral), vehicle: saline 102 % of control | endpoint: median survival time, dose: 3.6 mg/kg/injection, schedule: Q01DX005 (ip), vehicle: water 105 % of control | endpoint: median survival time, dose: 5.0 mg/kg/injection, schedule: Q01DX009 (ip), vehicle: water 109 % of control and 110 % of control | endpoint: median survival time, dose: 6.0 mg/kg/injection, schedule: Q01DX005 (ip), vehicle: water 100 % of control | endpoint: median survival time, dose: 10.0 mg/kg/injection, schedule: Q01DX005 (ip), vehicle: water 111 % of control | endpoint: median survival time, dose: 10.0 mg/kg/injection, schedule: Q01DX009 (ip), vehicle: water 116 % of control and 120 % of control | endpoint: median survival time, dose: 17.0 mg/kg/injection, schedule: Q01DX005 (ip), vehicle: water 111 % of control | endpoint: median survival time, dose: 17.0 mg/kg/injection, schedule: Q04DX003 (ip), vehicle: water 100 % of control | endpoint: median survival time, dose: 20.0 mg/kg/injection, schedule: Q01DX009 (ip), vehicle: water 90 % of control | endpoint: median survival time, dose: 29.0 mg/kg/injection, schedule: Q01DX005 (ip), vehicle: water 116 % of control | endpoint: median survival time, dose: 29.0 mg/kg/injection, schedule: Q04DX003 (ip), vehicle: water 100 % of control | endpoint: median survival time, dose: 40.0 mg/kg/injection, schedule: Q01DX009 (ip), vehicle: water 70 % of control | endpoint: median survival time, dose: 48.0 mg/kg/injection, schedule: Q04DX003 (ip), vehicle: water 100 % of control | endpoint: median survival time, dose: 49.0 mg/kg/injection, schedule: Q01DX005 (ip), vehicle: water 116 % of control | endpoint: median survival time, dose: 80.0 mg/kg/injection, schedule: Q04DX003 (ip), vehicle: water 105 % of control | endpoint: median survival time, dose: 134.0 mg/kg/injection, schedule: Q04DX003 (ip), vehicle: water 111 % of control
